Entries after “also recorded” stand apart in the source; their conditions may differ. Marks after values point to notes of the source that are not given here.
Experiments:
[1] = test system: DOHH2 human tumor xenograft; assay: CAS-024 and Rituxan as single agents in established DOHH2 xenograft model in SCID mice; type: in vivo; details: for Death (other than for Tumor Size Sacrifice) / Median Survival Time: 200 μg IP days 0, 4, 8; for Median Survival Time: cumulative 600 μg; for mean tumor volume compared with human IgG treated group: 200 μg IP, day 4 through day 11
Protocol: The objective of this study was to examine the efficacy of CAS-024 and RITUXAN® (rituximab) as single agents in a model of established human tumor (DOHH2) xenografts in SCID mice.
Mice were monitored daily by visual inspection. […] Tumor volumes were calculated as described above. Tumor volumes on the last day that all mice were alive in each group were also expressed in terms of tumor volumes relative to day 0, using the formula: […]

[2] = test system: DOHH2 human tumor xenograft; assay: CAS024 combined with bendamustine in subcutaneous DOHH2 xenografts in SCID mice; type: in vivo; details: CAS024 10 μg IV days 0, 4, 8; Bendamustine 10 mg/kg IP days 0, 2, 4, 7, 9
Protocol: Establishment of tumor xenografts and sorting into treatment groups.
Monitoring and endpoints. Mice were monitored daily by visual inspection. […] Tumor volumes were calculated as described above.

CD37 [3] = biological target: T1, CD37 (Homo sapiens, UniProt P11049); assay: FACS competitive binding / cross blocking of FITC-conjugated anti-CD37 on BJAB cells; details: FIGS. 5A-5E
T1 sequence (P11049 1-281): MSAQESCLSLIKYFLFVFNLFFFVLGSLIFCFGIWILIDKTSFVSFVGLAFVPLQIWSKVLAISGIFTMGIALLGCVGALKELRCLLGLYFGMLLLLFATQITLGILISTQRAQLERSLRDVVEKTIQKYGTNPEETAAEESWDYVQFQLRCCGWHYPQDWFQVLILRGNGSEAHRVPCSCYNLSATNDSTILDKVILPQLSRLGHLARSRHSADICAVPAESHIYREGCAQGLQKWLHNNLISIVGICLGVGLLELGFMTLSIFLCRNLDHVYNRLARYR
Protocol: FITC labeled antibody conjugates were titrated from 10 ng/mL to 10 μg/mL in an initial binding study to determine the optimal amount to use in the blocking studies. The level chosen was just below saturating amounts, and was kept constant in the subsequent assays, while levels of blocking antibody were increased over a 10-fold range. Data were plotted as percent of maximal binding versus concentration of blocking antibody, so that higher levels indicate less efficient blocking, while lower levels indicate more efficient blocking activity.
For competitive binding assays, 2.5×10^5 BJAB cells were incubated in 96-well V-bottom plates in staining media (PBS with 2% mouse sera) with the FITC-conjugated anti-CD37 mAbs at 1.25 μg/mL in the presence of unconjugated anti-CD37 MAb at the indicated concentrations (2.5, 1.25, 0.6, or 0.3 μg/ml) or staining media for 45 minutes on ice in the dark. Blocking antibodies and FITC labeled antibody conjugates were added to reactions prior to addition of cells. The cells were then washed […] with PBS and fixed with 1% paraformaldehyde (USB, Cleveland, Ohio). The treated cells were analyzed by flow cytometry using a FACsCalibur instrument and CellQuest software (BD Biosciences, San Jose, Calif.). […]

[4] = test system: chronic lymphocytic leukemia (CLL) cells; details: in vitro; cited from earlier work
CD37 [5] = biological target: T1, CD37; assay: FMAT competition binding assay against labeled CAS-006 on Ramos cells; design: CD-37 found on Ramos cells (a B-lymphoblastoid cell line derived from a Burkitt lymphoma); endogenous in cells; host or cells: Ramos cells
From the text: A competition assay was used to compare the binding affinity of different anti-CD37 specific small modular immunopharmaceutical (SMIP) molecules to CD-37 found on Ramos cells (a B-lymphoblastoid cell line derived from a Burkitt lymphoma). An SEC purified chimeric anti-CD37 SMIP molecule (CAS-006, SEQ ID NO:247) was labeled with the FMAT Blue® fluorescence dye (Applied Biosystems) and used as the standard to compete with purified unlabeled chimeric anti-CD37 SMIP molecule (positive control) and purified unlabeled humanized anti-CD37 SMIP test molecules. […] The plates were incubated at room temperature for 30 min and read on an 8200 Cellular Detection System (Applied Biosystems) gated for middle cell size and low signal.
A competition assay as described in Example 4 was used to compare the binding affinity of different mouse-human hybrid anti-CD37 SMIP molecules compared to CAS-024 binding to Ramos cells. An SEC purified chimeric anti-CD37 SMIP molecule (CAS-006, SEQ ID NO:247) was labeled with the FMAT Blue® fluorescence dye (Applied Biosystems) and used as the standard to compete with purified unlabeled chimeric anti-CD37 SMIP molecule (CAS-006, positive control) and purified unlabeled humanized anti-CD37 SMIP test molecules—-CAS-002 (SEQ ID NO:48), CAS-003 (SEQ ID NO:52), CAS-014 (SEQ ID NO:251), CAS-017 (SEQ ID NO:252), and CAS-024 (SEQ ID NO:253).

Rec-1 cells [6] = assay: Rec-1 growth inhibition (ATPlite), combination index with bendamustine; type: cell-based, human; details: crosslinked CAS024 combined with bendamustine; 96 hr
Protocol: (§1) The final volume in each well was 150 μL.

[7] = test system: DOHH2 human tumor xenograft; assay: Dose response in established subcutaneous DOHH2 xenograft model in SCID mice; details: days 0, 4, 8
Protocol: The objective of this experiment was to examine the dose response to treatment with CAS-024 in a model of established subcutaneous human tumor (DOHH2) xenograft model in SCID mice.
On day 8 post-tumor inoculation, palpable tumors were apparent in a majority of mice. The tumor-bearing mice were sorted into four groups with equivalent mean tumor volumes (n=14 per group; 2 cages of 5 mice and 1 cage of 4 mice for each group). The day of the sort was defined as day 0. Tumor diameters were determined with a pair of calipers and tumor volumes were calculated using the formula: V=½[length×(width)^2].
Tumor-bearing groups of SCID mice were treated on days 0, 4, and 8 via IP injection of 0.2 mL of PBS containing 200 μg of huIgG (negative control) or 200, 100, 30, 10, or 3 μg of CAS-024. The two lowest dose solutions of CAS-024 were prepared on the day of injection to avoid the need to add a carrier protein to the most dilute solutions.
Dose solutions were prepared in similar volumes and the contents of the tubes were noted on removable labels. An investigator who was not treating or assessing the mice placed a color code on each tube and noted the code and identity of the tube contents in a laboratory notebook. Mice were monitored daily by visual inspection. Weights were determined weekly, and tumor diameters were determined at least 3 times per week (M, W, F) by an observer blinded (see above) to the treatment groups. Tumor volumes were calculated as described above. Mice were euthanized if their tumor volume reached more than 1500 mm^3 (or 1200 mm^3 on Fridays). Death was not an endpoint in the tumor protocols and, unless noted otherwise, “survival” of a mouse was determined by the time it was euthanized due to its tumor volume reaching the predetermined limits.
All statistical analyses were performed using GraphPad Prism software. Significant differences in mean tumor volumes and mean relative tumor volumes were determined using a one-way ANOVA for nonparametric data (Kruskal-Wallis test) with Dunn's multiple comparison post test. To examine differences between each of the CAS-024 treated groups and the huIgG group, all groups were compared. For comparisons between the CAS-024 groups only, the huIgG group was excluded. In addition, the high and middle dose (200, 100, and 30 μg) groups were analyzed as a one data set, and the middle and low dose (30, 10, and 3 μg) groups were analyzed as another data set. Significant differences in survival of mice over time were determined using Kaplan-Meier survival analysis with a log-rank test for comparing survival curves. Significant differences in the incidence of tumor-free mice were determined using Fisher's exact test. p values<0.05 were considered significant.

Rec-1 cells [8] = assay: Rec-1 growth inhibition (ATP viable cell detection), combination index with chemotherapeutic agents; type: cell-based, human; details: 96 hours
Protocol: Rec-1 cells, a CD37+ human B cell line established from a patient with mantle cell lymphoma, were tested for growth inhibition in response to crosslinked CAS-024 in the presence or absence of doxorubicin, vincristine, or fludarabine (see FIG. 7). CAS-024 was preincubated with anti-human IgG F(ab)′2 to crosslink the protein. Cells were cultured with medium alone or with medium containing various concentrations of the crosslinked CAS-024 protein, in the presence or absence of various concentrations of doxorubicin, vincristine, or fludarabine. Cultures were incubated for 96 hours and growth inhibition was assessed using an ATP viable cell detection system (i.e., viable cells quantified by ATP release).
A numerical value, assigned to each drug combination at predefined dose levels, enabled quantitative drug/drug interaction comparisons between different drug combinations. Results were expressed as combination indices (CI) vs. effect level, in which effect level represented percent inhibition of cell growth. The mean CI±SEM for each effect level was averaged over three experiments. A CI<1.0 was considered synergy, CI=1.0 additivity, and CI>1.0 antagonism.

SU-DHL-6 cells = assay: SU-DHL-6 growth inhibition (ATPlite), combination index; type: cell-based, human
Protocol: as §1

rituximab [Rituxan ®, reference compound]
Death (other than for Tumor Size Sacrifice) [1]: 0/15 | Median Survival Time [1]: 43 days | mean tumor volume compared with human IgG treated group [1]: significantly lower than that of the human IgG treated group

Cn1c(CCCC(=O)O)nc2cc(N(CCCl)CCCl)ccc21 [Bendamustine, 4-[5-[Bis(2-chloroethyl)amino]-1-methylbenzimidazol-2-yl]butanoic acid, reference compound]
Median Survival Time [2]: 17 days | clinical signs of toxicity [2]: scruffy coats and diarrhea

CAS-006: chimeric anti-CD37 SMIP protein (mVLmVH) with variable regions of mouse mAb G28-1, SEQ ID NO:247
blocking activity (inhibition of binding of FITC-conjugated anti-CD37) (CD37 [3]): highest level of blocking activity | combination effect with fludarabine on killing of CLL cells [4]: acts synergistically

G28-1 VH (M99F, Y102S)—VL (T25A) scFv (SSC-P) H WCH2 WCH3 [CAS-024]
greater affinity for CD37 than humanized VLVH anti-CD37 SMIP molecules with 16 amino acid linker (CD37 [5]; FIG. 3): ≤ 4 fold | binding affinity for CD37 compared with parent CAS-006 (CD37 [5]; competition with FMAT Blue labeled CAS-006): substantially the same affinity; also recorded: same binding affinity as CAS-006 | Median Survival Time [2]: 17^b Days | clinical signs of toxicity [2]: No clinical signs of toxicity | combination effect on target cell growth (CI) (Rec-1 cells [6]): synergistic inhibitory effects | Death (Not Due to Large Tumor Volume) ([7]; 3 μg per IP injection): 0/14 | Median Survival Time ([7]; 3 μg per IP injection, cumulative 9 μg): 19 days | Death (Not Due to Large Tumor Volume) ([7]; 10 μg per IP injection): 0/14 | Median Survival Time ([7]; 10 μg per IP injection, cumulative 30 μg): 28 days | Death (Not Due to Large Tumor Volume) ([7]; 30 μg per IP injection): 0/14 | Median Survival Time ([7]; 30 μg per IP injection, cumulative 90 μg): 35 days | Death (Not Due to Large Tumor Volume) ([7]; 100 μg per IP injection): 1/14^h | Median Survival Time ([7]; 100 μg per IP injection, cumulative 300 μg): Undefined | Death (Not Due to Large Tumor Volume) ([7]; 200 μg per IP injection): 0/14 | Median Survival Time ([7]; 200 μg per IP injection, cumulative 600 μg): Undefined^ef | effect on the growth of DOHH2 tumors ([7]; 3 to 200 μg per IP injection): dose-dependent inhibitory effect | Death (other than for Tumor Size Sacrifice) [1]: 1/15^f | Median Survival Time [1]: Undefined^d,e | mean tumor volume compared with human IgG treated group [1]: significantly lower than that of the human IgG treated group | combination index (CI) (Rec-1 cells [8]; crosslinked CAS-024 combined with doxorubicin): additive | combination index (CI) (Rec-1 cells [8]; crosslinked CAS-024 combined with fludarabine): < 1.0 | combination index (CI) (Rec-1 cells [8]; crosslinked CAS-024 combined with vincristine): < 1.0 | combination effect on cell growth (CI) (SU-DHL-6 cells; CAS-024 combined with chlorambucil): did not result in synergistic inhibitory effects | combination effect on cell growth (CI) (SU-DHL-6 cells; crosslinked CAS024 combined with bendamustine, 96 hr): synergistically inhibited
